Values joined by “and” are separate entries in the source; they are usually repeats but may differ in a detail not shown here. Equal entries are not always repeated. Inconclusive results and toxic doses are left out. Cut-off read from the data, not from the text of the source: active = T/C of 150% or more; inactive = T/C below 125%.
Test system: L1210 leukemia ip in BDF1 mice, survival T/C
Experiment: NCI In Vivo Anticancer Drug Screen. Data for tumor model L1210 Leukemia (intraperitoneal) in B6D2F1 (BDF1) mice
Details: endpoint: mean survival time, higher = longer survival
In short: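 Each compound was tested against a transplantable tumor grown in mice. The endpoint was survival, with treated animals benchmarked against vehicle controls as a simple ratio.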

[1] = dose: 100.0 mg/kg/injection, schedule: Q01DX001 (ip), vehicle: saline
[2] = dose: 200.0 mg/kg/injection, schedule: Q01DX001 (ip), vehicle: saline
[3] = dose: 400.0 mg/kg/injection, schedule: Q01DX001 (ip), vehicle: saline

Measured: T/C

C#CC(=O)OC
inactive: dose: 0.78 mg/kg/injection, schedule: Q01DX009 (ip), vehicle: saline 103 % of control | dose: 1.56 mg/kg/injection, schedule: Q01DX009 (ip), vehicle: saline 103 % of control | dose: 1.56 mg/kg/injection, schedule: Q04DX003 (ip), vehicle: saline 103 % of control | dose: 3.12 mg/kg/injection, schedule: Q01DX009 (ip), vehicle: saline 97 % of control | dose: 3.12 mg/kg/injection, schedule: Q04DX003 (ip), vehicle: saline 95 % of control | dose: 4.6 mg/kg/injection, schedule: Q01DX009 (ip), vehicle: saline 98 % of control | dose: 6.25 mg/kg/injection, schedule: Q04DX003 (ip), vehicle: saline 94 % of control | dose: 7.0 mg/kg/injection, schedule: Q01DX009 (ip), vehicle: saline 93 % of control | dose: 10.0 mg/kg/injection, schedule: Q01DX009 (ip), vehicle: saline 101 % of control

Cc1ccc2[nH]c3c(C)c4ccncc4c(C)c3c2c1
inactive: dose: 12.5 mg/kg/injection, schedule: Q01DX Z (ip), vehicle: saline 103 % of control | dose: 25.0 mg/kg/injection, schedule: Q01DX Z (ip), vehicle: saline 97 % of control | dose: 50.0 mg/kg/injection, schedule: Q01DX Z (ip), vehicle: saline 111 % of control | dose: 75.0 mg/kg/injection, schedule: Q01DX Z (ip), vehicle: saline 102 % of control | [1] 105 % of control | dose: 100.0 mg/kg/injection, schedule: Q01DX Z (ip), vehicle: saline 97 % of control and 107 % of control | dose: 150.0 mg/kg/injection, schedule: Q01DX Z (ip), vehicle: saline 100 % of control | [2] 98 % of control | dose: 225.0 mg/kg/injection, schedule: Q01DX Z (ip), vehicle: saline 105 % of control | dose: 340.0 mg/kg/injection, schedule: Q01DX Z (ip), vehicle: saline 102 % of control | [3] 100 % of control

CSc1n[nH]c(=O)[nH]c1=S
inactive: [1] 96 % of control | [2] 101 % of control | [3] 95 % of control

Cc1ccc2cccc3c(=O)c4cccc5cccc(sc1c23)c54
inactive: [1] 88 % of control | dose: 100.0 mg/kg/injection, schedule: Q01DX009 (ip), vehicle: other 92 % of control | [2] 97 % of control | dose: 200.0 mg/kg/injection, schedule: Q01DX009 (ip), vehicle: other 92 % of control | [3] 89 % of control | dose: 400.0 mg/kg/injection, schedule: Q01DX009 (ip), vehicle: other 92 % of control

O=c1[nH]c2ccccc2n1C1=CCN(Cc2ccccc2)CC1
inactive: dose: 100.0 mg/kg/injection, schedule: Q04DX003 (ip), vehicle: Klucel (hydroxypropylcellulose) (HPC) 95 % of control | dose: 200.0 mg/kg/injection, schedule: Q04DX003 (ip), vehicle: Klucel (hydroxypropylcellulose) (HPC) 109 % of control | dose: 400.0 mg/kg/injection, schedule: Q04DX003 (ip), vehicle: Klucel (hydroxypropylcellulose) (HPC) 112 % of control

Cc1c(C/C(=N/O)C(=O)O)[nH]c(=S)[nH]c1=O
inactive: dose: 100.0 mg/kg/injection, schedule: Q04DX003 (ip), vehicle: saline with Tween-80 103 % of control | dose: 200.0 mg/kg/injection, schedule: Q04DX003 (ip), vehicle: saline with Tween-80 96 % of control | dose: 400.0 mg/kg/injection, schedule: Q04DX003 (ip), vehicle: saline with Tween-80 102 % of control
